Reference: PMC5733478, “A Non-imaging High Throughput Approach to Chemical Library Screening at the Unmodified Adenosine-A3 Receptor in Living Cells” (Frontiers in Pharmacology, 2017)
Where a name gives a salt, the structure may show the parent alone. Read-outs that look alike come from different tables or passages of the source.

Biological target: T1, human A3AR (Homo sapiens, UniProt P0DMS8)
T1 construct: expressed in transfected cells
T1 sequence (P0DMS8 1-318): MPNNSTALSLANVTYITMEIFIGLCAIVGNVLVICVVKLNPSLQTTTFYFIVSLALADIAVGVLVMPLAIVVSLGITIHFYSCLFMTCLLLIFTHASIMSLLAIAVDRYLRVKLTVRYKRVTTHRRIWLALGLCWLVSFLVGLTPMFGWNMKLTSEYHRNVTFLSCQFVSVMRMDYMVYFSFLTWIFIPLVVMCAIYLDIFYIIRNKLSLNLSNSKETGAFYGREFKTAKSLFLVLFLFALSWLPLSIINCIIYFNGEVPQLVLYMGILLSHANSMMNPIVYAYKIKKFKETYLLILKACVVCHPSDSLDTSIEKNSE
Experiment: LOPAC library primary screen: single concentration (10 μM) inhibition of 25 nM CA200645 binding, PHERAstar FS

[1] = % of control wells (1% DMSO and 25 nM CA200645), compounds at 10 µM, whole live cells expressing the A3AR, mean ± SD, three experiments in duplicate

| SMILES | % 25 nM CA200645 binding | also measured |
| --- | --- | --- |
| OC[C@H]1O[C@@H](n2cnc3c(NC4CCCCC4)ncnc32)[C@H](O)[C@@H]1O [N6-Cyclohexyladenosine] | 92.9 ± 12.9% | – |
| CCCCCCCC/C=C\CCCCCCCC(=O)O [Oleic Acid] | 98.9 ± 11.8% | – |
| CC1=C(C)C(=O)C(CCCCC#CCCCC#CCO)=C(C)C1=O [AA-861] | – | % 25 nM CA200645 binding [1]: 69.6 ± 8.4% |
| CCCCS(=N)(=O)CC[C@H](N)C(=O)O (stereo partly drawn) [L-Buthionine-sulfoximine] | 98.1 ± 5.3% | – |
| CCN(CC)CCOC(=O)c1cc(Cl)c(N)cc1OC.Cl [SDZ-205,557 hydrochloride] | 87.0 ± 9.3% | – |
| COc1ccc2[nH]c3c(c2c1)CCNC3 | 93.4 ± 1.1% | – |
| O=C1CC[C@@]2(O)[C@H]3Cc4ccc(O)c5c4[C@@]2(CCN3CC2CC2)[C@H]1O5 [Naltrexone hydrochloride] | – | % 25 nM CA200645 binding (compounds tested at 10 µM, % of control wells (1% DMSO and 25 nM CA200645), whole live cells expressing the A3AR, mean ± SD, three experiments in duplicate): 102.6 ± 6.5% |
| Clc1ccccc1C(c1ccccc1)(c1ccccc1)n1ccnc1 [Clotrimazole] | 74.0 ± 15.0% | – |
| CC(C)(C)NC[C@H](O)COc1nsnc1N1CCOCC1.O=C(O)/C=C\C(=O)O [S(-)-Timolol maleate] | 103.3 ± 4.5% | – |
| Cc1nn(-c2ccccc2)c(C)c1/C=N/N1CCN(Cc2ccccc2)CC1 [SANT-1] | 82.1 ± 15.9% | – |
| CC1=NN=C(c2ccc(N)cc2)c2cc3c(cc2C1)OCO3.Cl [GYKI 52466 hydrochloride] | 78.2 ± 10.4% | – |
| O=C(CCCN1CCC2(CC1)C(=O)NCN2c1ccccc1)c1ccc(F)cc1 [Spiperone hydrochloride] | 85.1 ± 18.3% | – |
| CN[C@@H]1C[C@@H](c2ccc(Cl)c(Cl)c2)c2ccccc21 [Indatraline hydrochloride] | 103.0 ± 8.6% | – |
| Cc1ncsc1CCCl.Cl [Chlormethiazole hydrochloride] | 84.7 ± 21.7% | – |
| COc1cc2ncnc(Nc3cccc(Cl)c3)c2cc1OC [Tyrphostin AG 1478] | 90.3 ± 8.9% | – |
| COCCCC/C(=N\OCCN)c1ccc(C(F)(F)F)cc1 [Fluvoxamine maleate] | 100.9 ± 16.7% | – |
| C1CNCCN1.COc1cc(C(O)CO)ccc1O.COc1cc(C(O)CO)ccc1O (stereo not drawn) [MHPG piperazine] | 95.1 ± 7.6% | – |
| NC(=O)NO [Hydroxyurea] | 107.6 ± 23.3% | – |
| CC(C)(C)C(=O)Oc1ccc(S(=O)(=O)Nc2ccccc2C(=O)NCC(=O)[O-])cc1.[Na+] [Sivelestat sodium salt hydrate] | 96.6 ± 6.4% | – |
| Cc1nc2n(c(=O)c1CCN1CCC(c3noc4cc(F)ccc34)CC1)CCCC2O (stereo not drawn) [Paliperidone] | 94.9 ± 1.6% | – |
| C[N+]1(C)[C@@H]2CC(OC(=O)[C@H](CO)c3ccccc3)C[C@H]1[C@@H]1O[C@@H]12.O=[N+]([O-])[O-] (single isomer, unassigned; (-)) [(-)-Scopolamine methyl nitrate] | 89.5 ± 24.4% | – |
| CCNC(=O)[C@H]1O[C@@H](n2cnc3c(N)nc(NCCc4ccc(CCC(=O)O)cc4)nc32)[C@H](O)[C@@H]1O [CGS 21680, reference compound] | – | hit in LOPAC primary screen (inhibited the binding of CA200645 by >40%): not identified as hits |
| Cl.NC1C=CC=C(C(=O)O)C1 (stereo not drawn) [Gabaculine hydrochloride] | 97.5 ± 8.4% | – |
| COc1cc2c(CCNC(C)=O)c[nH]c2cc1Cl [6-Chloromelatonin] | 92.8 ± 24.3% | – |
| CCn1nc(C(=O)O)c(=O)c2cc3c(cc21)OCO3 [Cinoxacin] | 96.9 ± 2.7% | – |
| CCN1CCC[C@H]1CNC(=O)c1c(O)c(Cl)cc(Cl)c1OC.O=C(O)C(O)C(O)C(=O)O (racemic) [S(+)-Raclopride L-tartrate] | 98.6 ± 4.9% | – |
| N[C@H](C(=O)O)c1cc(O)no1 (racemic) [(±)-Ibotenic acid] | 93.1 ± 9.6% | – |

| SMILES | % 25 nM CA200645 binding | also measured |
| --- | --- | --- |
| COc1cc(OC)cc(-c2cc3cnc(N)nc3nc2NC(=O)NC(C)(C)C)c1 [PD-166866] | 34.3 ± 9.7% | – |
| O=C[C@H](Cl)[C@@H](O)[C@H](O)[C@H](O)CO [2-Chloro-2-deoxy-D-glucose] | 89.9 ± 5.0% | – |
| NS(=O)(=O)c1ccc(-n2nc(C(F)(F)F)cc2-c2ccc(Cl)cc2)cc1 [SC-236] | 90.8 ± 15.2% | – |
| N=C(N)NC(CCC(=O)O)C(=O)O (stereo not drawn) [alpha-Guanidinoglutaric acid] | 76.4 ± 9.5% | – |
| C[C@H]1C[C@H]2[C@@H]3CCC4=CC(=O)C=C[C@]4(C)[C@@]3(Cl)[C@@H](O)C[C@]2(C)[C@@]1(O)C(=O)CO [Beclomethasone] | 93.7 ± 1.6% | – |
| O=C(O)CCC(=O)N1CCC[C@H]1C(=O)O [N-Succinyl-L-proline] | 81.8 ± 11.2% | – |
| CC(=O)OC(C)C[N+](C)(C)C.[Cl-] (stereo not drawn) [Acetyl-beta-methylcholine chloride] | 91.4 ± 19.2% | – |
| NC(CP(=O)(O)O)C(=O)O (racemic) [(±)-2-Amino-3-phosphonopropionic acid] | 96.0 ± 3.9% | – |
| CC(C)NCC(O)COc1cccc2[nH]ccc12 (stereo not drawn) [Pindolol] | 84.7 ± 11.8% | – |
| c1ccc(C(NCc2cccnc2)(c2ccccc2)c2ccccc2)cc1 [UCL 2077] | 52.2 ± 5.4% | – |
| CC1=C(/C=C/C(C)=C/C=C/C(C)=C\C(=O)O)C(C)(C)CCC1 [13-cis-retinoic acid] | 85.2 ± 2.9% | – |
| COc1ccc(CCCOC(Cn2ccnc2)c2ccc(OC)cc2)cc1 (stereo not drawn) [SKF 96365] | – | % 25 nM CA200645 binding [1]: 100.0 ± 16.7% |
| C[C@H](Cc1ccc2c(c1)OC(C(=O)[O-])(C(=O)[O-])O2)NC[C@H](O)c1cccc(Cl)c1.[Na+].[Na+] [CL 316,243] | 38.7 ± 18.1% | – |
| O=C(O)CCCCCCCC(=O)O [Azelaic acid] | 91.8 ± 5.2% | – |
| Nc1ccc(-c2ccc3ccccc3n2)cc1 [BF-170 hydrochloride] | 78.6 ± 20.5% | – |
| O=C(O)c1cc(=O)c2c(Cl)cc(Cl)cc2[nH]1 [5,7-Dichlorokynurenic acid] | 100.9 ± 8.8% | – |
| N=C(N)c1ccccc1 [Benzamidine hydrochloride] | 90.8 ± 8.3% | – |
| O=c1[nH]cc(F)c(=O)[nH]1 [5-Fluorouracil] | 98.8 ± 8.7% | – |
| NC(C(=O)O)C(O)C(=O)O (racemic) [DL-threo-beta-hydroxyaspartic acid] | 97.0 ± 9.5% | – |
| CN/C(=N/CCSCc1nc[nH]c1C)NC#N [Cimetidine] | 94.0 ± 4.0% | – |
| C=C[C@H]1C[N@@]2CC[C@H]1C[C@@H]2[C@@H](O)c1ccnc2ccc(OC)cc12 [Quinidine sulfate] | 111.6 ± 16.6% | – |
| N=C(N)c1ccc(N)cc1 [4-Aminobenzamidine dihydrochloride] | – | % 25 nM CA200645 binding [1]: 97.4 ± 8.5% |
| CC(C)Cn1c(=O)n(C)c(=O)c2[nH]cnc21 [3-Isobutyl-1-methylxanthine] | 98.0 ± 7.1% | – |
| COC(=O)C1=CCCN(C)C1 [Arecoline hydrobromide] | 81.8 ± 27.0% | – |
| CCC1(c2ccc(N)cc2)CCC(=O)NC1=O (racemic) [(±)-p-Aminoglutethimide] | 94.1 ± 8.7% | – |
| CO/N=C(\C(=O)N[C@@H]1C(=O)N2C(C(=O)O)=C(CSc3nc(=O)c(=O)[nH]n3C)CS[C@H]12)c1csc(N)n1 [Ceftriaxone sodium] | 100.5 ± 11.9% | – |
| Cc1cccc(C#Cc2ccccc2)n1.Cl | 95.8 ± 6.2% | – |
